Laboratory results from patent publication US20240407990A1, “SYNERGISTIC ANTIOXIDANT COMPOSITIONS” (The Procter & Gamble Company, priority 2023, published 2024).

Experiments:
skin = settings: cited from earlier work
keratinocytes = assay: Peroxide-Induced Keratinocyte Stress (ATP levels post-peroxide exposure); assay type: cell-based; parameters: key: net luminescence counts (treatment minus vehicle control)
From the text: This methodology is further discussed in Assessing bioenergetic function in response to oxidative stress by metabolic profiling. Free Radical Biology and Medicine; […], Benavides […], Zelickson […]. Zou L, Chatham J C, Hill B G, Zhang […]; 2011 Nov. 1; 51(9):1621-35, incorporated herein by reference, as well as in Proceedings of the National Academy of Sciences of the United States of America; Miyoshi N, Oubrahim H, Chock […] . . . 2006 Feb. 7; 103(6):1727-31, incorporated herein by reference. […] Hydrogen peroxide is a well-known ROS as is commonly used as a surrogate to analyze the effects of a variety of ROS. In this test, keratinocytes are cultured (passage <8) in T150 flasks using Epi-Life medium (Calcium Free and Phenol Red Free, supplemented with penicillin/streptomycin and keratinocytes growth supplement, Invitrogen cat #[…]500) in a CO2 incubator (Forma 51030532, Marietta OH). The keratinocytes are then plated into 96 well plates, 10,000 cells/well, 0.2 ml media. […] Luminescence is measured on a SpectraMax M3 (Molecular Devices, Sunnyvale, CA). Net luminescence is calculated by subtracting the luminescence counts from the vehicle control from the luminescence counts from the treatment groups. […] In each case, the arithmetic sum of the measured anti-oxidant activity of the three individual components is compared to the measured anti-oxidant activity of the triad combination of the same levels. Experiments are done in triplicate enabling the statistical determination (by T-test) of significance of whether synergism (observed/calculated ratio is greater than 1) is observed.

skin fibroblasts = skin fibroblasts in vitro; cited from earlier work

NC(=O)c1cccnc1 [Niacinamide, niacinamide]
lipoperoxide generation in skin (skin): inhibit
oxidative damage caused by pollutant particulate matter (skin): inhibit
Mean Keratinocyte ATP Level (keratinocytes; Niacinamide 0.005% alone, post-peroxide, series with PO 0.5%): 100.3
Mean Keratinocyte ATP Level (keratinocytes; Niacinamide 0.005% alone, post-peroxide, series with PO 0.8%): 32.7
Mean Keratinocyte ATP Level (keratinocytes; Niacinamide 0.01% alone, post-peroxide, series with PO 0.5%): 154.3
Mean Keratinocyte ATP Level (keratinocytes; Niacinamide 0.01% alone, post-peroxide, series with PO 0.8%): 85.7
Mean Keratinocyte ATP Level (keratinocytes; Niacinamide 0.05% alone, post-peroxide, series with PO 0.5%): 341.0
Mean Keratinocyte ATP Level (keratinocytes; Niacinamide 0.05% alone, post-peroxide, series with PO 0.8%): 465.0
Mean Keratinocyte ATP Level (keratinocytes; Niacinamide 0.1% alone, post-peroxide, series with PO 0.5%): 1142.0
Mean Keratinocyte ATP Level (keratinocytes; Niacinamide 0.1% alone, post-peroxide, series with PO 0.8%): 875.0
Mean Keratinocyte ATP Level (keratinocytes; Niacinamide 1.0% alone, post-peroxide, series with PO 0.5%): 9208.3
Mean Keratinocyte ATP Level (keratinocytes; Niacinamide 1.0% alone, post-peroxide, series with PO 0.8%): 6003.7
Mean Keratinocyte ATP Level (keratinocytes; Niacinamide 1.8% alone, post-peroxide, series with PO 0.5%): 12314.3
Mean Keratinocyte ATP Level (keratinocytes; Niacinamide 1.8% alone, post-peroxide, series with PO 0.8%): 11751.3

CC(C)(CO)[C@@H](O)C(=O)NCCCO [Panthenol, panthenol]
formation of reactive oxygen species (ROS) (skin fibroblasts): inhibit
Mean Keratinocyte ATP Level (keratinocytes; Panthenol 0.005% alone, post-peroxide, series with PO 0.5%): 193.3
Mean Keratinocyte ATP Level (keratinocytes; Panthenol 0.005% alone, post-peroxide, series with PO 0.8%): 170.0
Mean Keratinocyte ATP Level (keratinocytes; Panthenol 0.01% alone, post-peroxide, series with PO 0.5%): 473.3
Mean Keratinocyte ATP Level (keratinocytes; Panthenol 0.01% alone, post-peroxide, series with PO 0.8%): 280.0
Mean Keratinocyte ATP Level (keratinocytes; Panthenol 0.05% alone, post-peroxide, series with PO 0.5%): 617.3
Mean Keratinocyte ATP Level (keratinocytes; Panthenol 0.05% alone, post-peroxide, series with PO 0.8%): 550.7
Mean Keratinocyte ATP Level (keratinocytes; Panthenol 0.1% alone, post-peroxide, series with PO 0.5%): 1234.3
Mean Keratinocyte ATP Level (keratinocytes; Panthenol 0.1% alone, post-peroxide, series with PO 0.8%): 1227.7
Mean Keratinocyte ATP Level (keratinocytes; Panthenol 0.2% alone, post-peroxide, series with PO 0.5%): 5282.0
Mean Keratinocyte ATP Level (keratinocytes; Panthenol 0.2% alone, post-peroxide, series with PO 0.8%): 5711.7

Cc1cc(CC(C)CC(C)(C)C)n(O)c(=O)c1.NCCO (stereo not drawn) [Piroctone Olamine, piroctone olamine]
Mean Keratinocyte ATP Level (keratinocytes; Piroctone Olamine 0.5% alone, post-peroxide exposure): 13548.3
Mean Keratinocyte ATP Level (keratinocytes; Piroctone Olamine 0.8% alone, post-peroxide exposure): 18548.3
